Reference: PubChem BioAssay AID248 (DTP/NCI, 2004)
Toxic doses and inconclusive results are not listed. Cut-off read from the data, not from the text of the source: active = T/C of 150% or more; inactive = T/C below 125%.

Tested on: L1210 leukemia ip in BDF1 mice, survival T/C
Assay: NCI In Vivo Anticancer Drug Screen. Data for tumor model L1210 Leukemia (intraperitoneal) in B6D2F1 (BDF1) mice
Conditions: higher = longer survival
In short: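 Ratio derived from survival: compound-dosed mice over vehicle-dosed mice, all bearing a transplantable tumor.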

[1] = endpoint: mean survival time, dose: 100.0 mg/kg/injection, schedule: Q01DX001 (ip), vehicle: saline
[2] = endpoint: mean survival time, dose: 100.0 mg/kg/injection, schedule: Q01DX009 (ip), vehicle: saline
[3] = endpoint: mean survival time, dose: 200.0 mg/kg/injection, schedule: Q01DX001 (ip), vehicle: saline
[4] = endpoint: mean survival time, dose: 400.0 mg/kg/injection, schedule: Q01DX001 (ip), vehicle: saline
[5] = endpoint: mean survival time, dose: 100.0 mg/kg/injection, schedule: Q04DX003 (ip), vehicle: Klucel (hydroxypropylcellulose) (HPC)
[6] = endpoint: mean survival time, dose: 200.0 mg/kg/injection, schedule: Q04DX003 (ip), vehicle: Klucel (hydroxypropylcellulose) (HPC)
[7] = endpoint: mean survival time, dose: 400.0 mg/kg/injection, schedule: Q04DX003 (ip), vehicle: Klucel (hydroxypropylcellulose) (HPC)
[8] = endpoint: mean survival time, dose: 100.0 mg/kg/injection, schedule: Q01DX001 (ip), vehicle: carboxymethylcellulose (CMC)
[9] = endpoint: mean survival time, dose: 200.0 mg/kg/injection, schedule: Q01DX001 (ip), vehicle: carboxymethylcellulose (CMC)
[10] = endpoint: mean survival time, dose: 400.0 mg/kg/injection, schedule: Q01DX001 (ip), vehicle: carboxymethylcellulose (CMC)
[11] = endpoint: mean survival time, dose: 50.0 mg/kg/injection, schedule: Q01DX009 (ip), vehicle: saline with Tween-80
[12] = endpoint: mean survival time, dose: 100.0 mg/kg/injection, schedule: Q01DX009 (ip), vehicle: saline with Tween-80
[13] = endpoint: mean survival time, dose: 200.0 mg/kg/injection, schedule: Q01DX009 (ip), vehicle: saline with Tween-80
[14] = endpoint: mean survival time, dose: 400.0 mg/kg/injection, schedule: Q01DX009 (ip), vehicle: saline with Tween-80
[15] = endpoint: mean survival time, dose: 200.0 mg/kg/injection, schedule: Q04DX002 (ip), vehicle: Klucel (hydroxypropylcellulose) (HPC)
[16] = endpoint: mean survival time, dose: 400.0 mg/kg/injection, schedule: Q04DX002 (ip), vehicle: Klucel (hydroxypropylcellulose) (HPC)
[17] = endpoint: mean survival time, dose: 100.0 mg/kg/injection, schedule: Q04DX002 (ip), vehicle: saline with Tween-80
[18] = endpoint: mean survival time, dose: 200.0 mg/kg/injection, schedule: Q04DX002 (ip), vehicle: saline with Tween-80
[19] = endpoint: mean survival time, dose: 100.0 mg/kg/injection, schedule: Q01DX009 (ip), vehicle: Klucel (hydroxypropylcellulose) (HPC)
[20] = endpoint: mean survival time, dose: 200.0 mg/kg/injection, schedule: Q01DX009 (ip), vehicle: Klucel (hydroxypropylcellulose) (HPC)
[21] = endpoint: mean survival time, dose: 400.0 mg/kg/injection, schedule: Q01DX009 (ip), vehicle: Klucel (hydroxypropylcellulose) (HPC)
[22] = endpoint: mean survival time, dose: 3.12 mg/kg/injection, schedule: Q01DX009 (ip), vehicle: Klucel (hydroxypropylcellulose) (HPC)
[23] = endpoint: mean survival time, dose: 6.25 mg/kg/injection, schedule: Q01DX009 (ip), vehicle: Klucel (hydroxypropylcellulose) (HPC)
[24] = endpoint: mean survival time, dose: 12.5 mg/kg/injection, schedule: Q01DX009 (ip), vehicle: Klucel (hydroxypropylcellulose) (HPC)

Measured: T/C

CCOC(O)(C=O)C1CCCN1 (stereo not given)
inactive: [1] 100 % of control | [2] 104 % of control | [3] 97 % of control | endpoint: mean survival time, dose: 200.0 mg/kg/injection, schedule: Q01DX009 (ip), vehicle: saline 101 % of control | [4] 97 % of control | endpoint: mean survival time, dose: 400.0 mg/kg/injection, schedule: Q01DX009 (ip), vehicle: saline 95 % of control

CC(=O)NC1C(OCc2ccccc2)OC(COCc2ccccc2)C(OCc2ccccc2)C1OCc1ccccc1 (stereo not given)
inactive: endpoint: mean survival time, dose: 100.0 mg/kg/injection, schedule: Q01DX001 (ip), vehicle: saline with Tween-80 86 % of control | endpoint: mean survival time, dose: 200.0 mg/kg/injection, schedule: Q01DX001 (ip), vehicle: saline with Tween-80 94 % of control | endpoint: mean survival time, dose: 400.0 mg/kg/injection, schedule: Q01DX001 (ip), vehicle: saline with Tween-80 94 % of control

Cc1cc([N+](=O)[O-])cc(C)c1C
inactive: [5] 98 % of control | [6] 102 % of control | [7] 107 % of control

CC(C)(C)CC(C)(C)c1ccc(O)cc1
inactive: endpoint: mean survival time, dose: 62.5 mg/kg/injection, schedule: Q01DX Z (ip), vehicle: saline 95 % of control | [8] 94 % of control | endpoint: mean survival time, dose: 125.0 mg/kg/injection, schedule: Q01DX Z (ip), vehicle: saline 101 % of control | [9] 100 % of control | endpoint: mean survival time, dose: 250.0 mg/kg/injection, schedule: Q01DX Z (ip), vehicle: saline 90 % of control | [10] 100 % of control | endpoint: mean survival time, dose: 500.0 mg/kg/injection, schedule: Q01DX Z (ip), vehicle: saline 100 % of control

C/C=C(\C)C(=O)OC1CC(C)=C2C(=O)C=C(C)C2C2OC(=O)C(C)C12 (stereo not given)
inactive: [5] 98 % of control | [6] 102 % of control | [7] 96 % of control

CC(C)C[As](C)(=O)O
inactive: endpoint: mean survival time, dose: 66.0 mg/kg/injection, schedule: Q01DX009 (ip), vehicle: saline 107 % of control | [2] 115 % of control | endpoint: mean survival time, dose: 150.0 mg/kg/injection, schedule: Q01DX009 (ip), vehicle: saline 94 % of control

CCCCCCCCc1ccc(OC(C)OCCOCCOCC)cc1 (stereo not given)
inactive: endpoint: mean survival time, dose: 100.0 mg/kg/injection, schedule: Q04DX002 (ip), vehicle: saline 88 % of control | endpoint: mean survival time, dose: 200.0 mg/kg/injection, schedule: Q04DX002 (ip), vehicle: saline 88 % of control | endpoint: mean survival time, dose: 400.0 mg/kg/injection, schedule: Q04DX002 (ip), vehicle: saline 98 % of control

C=Cc1ccc(Oc2ccccc2)cc1
inactive: [11] 98 % of control | [12] 112 % of control

O=C(c1ccsc1)C(O)c1ccccc1 (stereo not given)
inactive: [8] 97 % of control | [9] 87 % of control | [10] 103 % of control

CC(=O)OC1C(O)C(C)OC(OC2C(OC(=O)C3CCC4C(C3)OC3(CC(OC(=O)/C=C/c5ccccc5)C(C)CO3)C43CO3)OC(C)C(O)C2OC(C)=O)C1O (stereo not given)
inactive: endpoint: median survival time, dose: 0.5 mg/kg/injection, schedule: Q01DX009 (ip), vehicle: distilled water + Tween-80 92 % of control | endpoint: median survival time, dose: 1.0 mg/kg/injection, schedule: Q01DX009 (ip), vehicle: distilled water + Tween-80 95 % of control | endpoint: median survival time, dose: 2.0 mg/kg/injection, schedule: Q01DX009 (ip), vehicle: distilled water + Tween-80 95 % of control | endpoint: median survival time, dose: 4.0 mg/kg/injection, schedule: Q01DX009 (ip), vehicle: distilled water + Tween-80 104 % of control | endpoint: median survival time, dose: 8.0 mg/kg/injection, schedule: Q01DX009 (ip), vehicle: distilled water + Tween-80 107 % of control | endpoint: median survival time, dose: 16.0 mg/kg/injection, schedule: Q01DX009 (ip), vehicle: distilled water + Tween-80 115 % of control | endpoint: median survival time, dose: 32.0 mg/kg/injection, schedule: Q01DX009 (ip), vehicle: distilled water + Tween-80 104 % of control

CCNc1nc(Cl)nc(N(CC)CC)n1
inactive: [12] 91 % of control | [13] 98 % of control | [14] 89 % of control

CCCCOC(=O)/C=C\C(=O)NC(N)=O
inactive: endpoint: mean survival time, dose: 31.0 mg/kg/injection, schedule: Q01DX Z (ip), vehicle: methylcellulose (MC) 98 % of control | endpoint: mean survival time, dose: 51.0 mg/kg/injection, schedule: Q01DX Z (ip), vehicle: methylcellulose (MC) 101 % of control

COC(=O)c1nnn(S(=O)(=O)c2ccc(C)cc2)c1C(=O)OC
inactive: endpoint: mean survival time, dose: 100.0 mg/kg/injection, schedule: Q04DX002 (ip), vehicle: Klucel (hydroxypropylcellulose) (HPC) 91 % of control | [15] 95 % of control | [16] 91 % of control

CCOC(=O)C(NC(=O)OCc1ccccc1)(OCc1ccccc1)C(C)C (stereo not given)
inactive: [12] 105 % of control | [13] 98 % of control | [14] 100 % of control

COc1ccccc1NC(=S)NCc1ccco1
inactive: [17] 89 % of control | [18] 89 % of control

CNC(=O)Nc1cccc(C(=O)O)c1
inactive: [19] 98 % of control | [20] 103 % of control | [21] 92 % of control

O=C(Nc1cccnc1)c1cccc([N+](=O)[O-])c1
inactive: [15] 108 % of control | [16] 97 % of control

c1ccc2c(c1)CC1(Cc3ccccc3-2)C[N+]12CCCCC2
inactive: endpoint: mean survival time, dose: 12.5 mg/kg/injection, schedule: Q04DX003 (ip), vehicle: saline 98 % of control | endpoint: mean survival time, dose: 25.0 mg/kg/injection, schedule: Q04DX003 (ip), vehicle: saline 98 % of control | endpoint: mean survival time, dose: 50.0 mg/kg/injection, schedule: Q04DX003 (ip), vehicle: saline 110 % of control

O=S(=O)(Oc1ccc(-c2ccccc2)cc1)C1CC1c1ccccc1 (stereo not given)
inactive: [1] 93 % of control | endpoint: mean survival time, dose: 100.0 mg/kg/injection, schedule: Q04DX003 (ip), vehicle: saline 93 % of control | [3] 97 % of control | endpoint: mean survival time, dose: 200.0 mg/kg/injection, schedule: Q04DX003 (ip), vehicle: saline 96 % of control | [4] 90 % of control | endpoint: mean survival time, dose: 400.0 mg/kg/injection, schedule: Q04DX003 (ip), vehicle: saline 91 % of control

CC(=O)Nc1ccccc1C(=NC1CCCC1)C(=O)NC1CCCC1
inactive: [22] 97 % of control | [23] 94 % of control | [24] 89 % of control | [21] 95 % of control

CC1(C)OC2C3COC(O3)C(O)C2O1 (stereo not given)
inactive: [17] 99 % of control | [18] 99 % of control | endpoint: mean survival time, dose: 400.0 mg/kg/injection, schedule: Q04DX002 (ip), vehicle: saline with Tween-80 96 % of control

Cc1cccc(C)c1NC(=O)c1ccc(Cl)cc1Cl
inactive: [19] 101 % of control | [5] 98 % of control | [20] 104 % of control | [6] 101 % of control | [21] 101 % of control | [7] 95 % of control

CC(=O)OC1(c2ccc(Cl)cc2)OC(=O)C(c2ccccc2)=C1Cc1ccccc1 (stereo not given)
inactive: endpoint: mean survival time, dose: 12.5 mg/kg/injection, schedule: Q01DX009 (ip), vehicle: saline with Tween-80 93 % of control | endpoint: mean survival time, dose: 25.0 mg/kg/injection, schedule: Q01DX009 (ip), vehicle: saline with Tween-80 86 % of control | [11] 86 % of control | [13] 95 % of control

C=CCN(CC=C)c1ccccc1
inactive: [19] 93 % of control | [5] 108 % of control | [20] 107 % of control | [6] 101 % of control | [21] 112 % of control | [7] 101 % of control

Nc1nc2nc(-c3ccc([N+](=O)[O-])cc3)nc(N)c2nc1-c1ccc(N(CCCl)CCCl)cc1
inactive: [1] 96 % of control | [3] 95 % of control | [4] 101 % of control

CCC(CC)CC1CN2CCc3cc(OC)c(OC)cc3C2CC1(O)CC (stereo not given)
inactive: [22] 93 % of control | [23] 97 % of control | [24] 109 % of control | endpoint: mean survival time, dose: 25.0 mg/kg/injection, schedule: Q01DX009 (ip), vehicle: Klucel (hydroxypropylcellulose) (HPC) 119 % of control | endpoint: mean survival time, dose: 25.0 mg/kg/injection, schedule: Q04DX003 (ip), vehicle: Klucel (hydroxypropylcellulose) (HPC) 115 % of control | endpoint: mean survival time, dose: 50.0 mg/kg/injection, schedule: Q01DX009 (ip), vehicle: Klucel (hydroxypropylcellulose) (HPC) 97 % of control | endpoint: mean survival time, dose: 50.0 mg/kg/injection, schedule: Q04DX003 (ip), vehicle: Klucel (hydroxypropylcellulose) (HPC) 99 % of control
